Measured values reported in patent US6448201B1, “Benzoylcyclohexanediones and benzoylpyrazoles, their preparation, and their use as herbicides and plant growth regulators” (Aventis CropScience GmbH, priority 1999, dated 2002).

melting point: 72 to 78 °C
SMILES: CS(=O)(=O)c1ccc(C(=O)C2C(=O)CCCC2=O)c(Cl)c1OCc1cc(-c2ccccc2)no1 [1.70, 2-(2-Chloro-3-(3-phenylisoxazol-5-yl)methoxy-4-methylsulfonylbenzoyl)cyclohexane-1,3-dione]
